Results: US20210317113A1, “1,2,3-TRIAZOLE DERIVATIVES AND USES THEREOF” (Alxerion Biotech LLC, priority 2020, published 2021)

Columns and labels:
[1] = system: fibrinolysis mediated by tPA (plasminogen activation by tPA); experiment: Fibrinolytic assay: one-step spectrophotometric clot lysis in human plasma; assay type: biochemical; details: concentration at which 50% of total fibrinolysis mediated by tPA is inhibited; human ACD plasma, clot triggered by TF, absorbance 340 nm; read-out: Anti-fibrinolytic (SERPIN) Activity IC50
Method: Fibrinolytic activity in human plasma was determined by a one-step spectrophotometric method (Gidron et al. (1978) J. Clin. Pathol. 31(1):54-57) with minor modifications (see EXAMPLE 2). In this method, fibrin clot formation in anticoagulant citrate dextrose (ACD) plasma samples obtained from healthy volunteers is triggered by tissue factor (TF) and can be quantified by spectrometry as a significant increase in basal plasma absorbance at 340 nm.
As shown in FIGS. 2A-2D, in the absence of tPA, plasma absorbance remains permanently elevated.
Fibrinolytic activity in human plasmas in the presence of derivatives according to the disclosure was determined by a one-step spectrophotometric method.
Fibrin clot formation in the anticoagulant acid citrate dextrose (ACD)-treated plasma obtained from healthy volunteers is triggered by tissue factor (TF) (Thromborel S, Siemens Healthineers) and quantifies by spectrophotometry at 340 nm (using a Molecular Devices SpectraMax® M2e Multimode Microplate Reader). When recombinant human Tissue Plasminogen Activator (tPA, final concentration of 5.2 μg/ml) is simultaneously added, fibrinolysis of the clot can be determined.
Fresh blood was extracted from healthy volunteers. ACD, to reach a 10% concentration, was instantly added to the extracted blood, to prevent any unwanted coagulation. After that, blood was centrifuged for 15 min at 1,000 g. Plasma was clearly separated from red blood cells. 3 mL aliquots of aspirated plasma were immediately frozen at −20° C.
4 mL of ddH2O was added to a vial of Thromborel S and mixed thoroughly for 2 min. and left at 4° C. 500 μL TF aliquots were used for each experiment.
Representative derivatives of the present disclosure (Nos. 1, 5, and 7) were diluted in DMSO (those with Boc) or ddH2O (those with HCl) to a final concentration of 10 mM. A solution containing 1 M Tris HCl, pH 7.5 (Fisher BioReagent) (Buffer A), 0.110 g of CaCl2) in 10 mL of ddH2O (Buffer B), and tPA (Abcam, 1.3 mg/mL added into the diluted derivative solution, final concentration in serum was 5.2 μg/mL), and the derivative was prepared in a total volume of 75 μL and added to untreated, flat, clear Costar® 96-well plates in triplicate. Absorbance at 340 nm at 37° C. for 30 min was recorded every 15 sec. The plates were shaken every 3 sec in between readings. Controls for basal plasma absorbance, basal coagulation absorbance and basal fibrinolytic activity absorbance were performed in every assay.
FIG. 2A show the results a control experiment displaying the ability of TF to cause fibrin clot formation in the absence and presence of t-PA. TF was able to cause fibrin clot formation evaluated as a significant increase of the basal plasma absorbance at 340 nm.

[2] = system: Non-Small Lung Cancer Cells (NSLCs); experiment: Cancer migration (wound healing) assay; assay type: cell-based; details: wound healing assay, dose-response curve; read-out: Anti-Cancer Activity (Inhibition of Cancer Cell Migration) IC50
From the text: The ability of 1,2,3-triazole derivatives according to the disclosure to inhibit cancer cell migration and proliferation in vitro can be measured, e.g., by a wound healing assay (Rodriguez et al., in Cell Migration: Developmental Methods and Protocols, Web et al., Guan ed. Humana Press 294, 23-29). This assay is based on the observation that, upon the creation of an artificial gap on a confluent cancer cell monolayer, the cells on the edge of the created gap will start migrating and proliferating until new cell-cell contacts are established (EXAMPLE 3).
Non-Small Lung Cancer Cells (NSLCs) migration rate was assessed in an in vitro wound healing assay. This assay is based on the observation that, upon the creation of an artificial gap on a confluent cell monolayer, the cells on the edge of the created gap will start migrating and proliferating until new cell-cell contacts are established.
A confluent cell layer is a prerequisite for starting this assay. Gap formation is done manually with a scrapper and cell proliferation and migration is determined recording a time-lapse video for 20 hr. with a time interval of 30 min. The microscopic pictures are manually analyzed for obtaining information about the proliferation and migration characteristics of the cultured cells and the image analysis detects the cell covered area.
NSLCs were cultured in Eagle's Minimum Essential Medium (ATCC-formulated medium, Catalog No. 30-2003) containing fetal bovine serum at 10% during several periods. Wound healing assays with supplemented medium containing 1,2,3-triazole derivatives were performed to evaluate the inhibitory effect on proliferation and migration of cancer cells.
In order to simulate as close as possible the in vivo cancer microenvironment, human plasma and calcium were added to the cell culture system to provide the hemostatic factors normally present in the cancer stroma. The previous day, cells were seeded with 10% FBS at a number that would provide 90% confluence the next day. On Day 0, a scratch (“a wound”) was performed in the middle of the well and the 10% FBS medium was replaced with 20% plasma, 20 mM calcium medium, with or without Derivative 1. 10% FBS medium was used as control in these experiments. “Wound healing” or closure of the scratch was assessed over a period of 4 days, and cell number in the wound area was quantified for each condition. Increasing amount of Derivative 1 (LTI6) was used to attain a dose-response curve.
The cell function effect of Derivative 1 was compared with Tranexamic Acid (TNA) and Caproic Acid (CA), commercially available and widely used anti-metastasis drugs.

[3] = system: Non-Small Lung Cancer Cells (NSLCs); experiment: Trypan Blue Exclusion Test of cancer cell viability; assay type: cell-based; details: defined in text as concentration of derivative causing greater than 90% of the cells to die; read-out: Anti-Cancer Activity (Trypan Blue Exclusion Assay) IC50
Method: The ability of 1,2,3-triazole derivatives according to the disclosure to kill cancer cells can be measured, e.g., by Trypan Blue Exclusion Assay which measured cell death by starvation due to the presence of the derivative (see EXAMPLE 4). The results obtained using this assay with some representative 1,2,3-triazole derivatives according to the disclosure are shown below in Table 4.
The effect of Derivative 1 on cancer cell viability was determined using the Trypan Blue Exclusion Test (Stober (2001) (Curr. Protoc. Immunol., May; Appendix 3:Appendix 3B. doi: 10.1002/0471142735.ima03bs21). The viability of Non-Small Lung Cancer Cells (NSLCs) was assessed over a period of 15 days after the promotion of coagulation with or without 200 μM of 1,2,3-triazole derivative 1 and with or without 2% human plasma. Fresh 2% FBS medium corresponding to each condition was added every 3 days. Cell death was analyzed using Trypan blue staining. 2% FBS medium was used as control. Some representative results are shown in FIGS. 4A-4F.

Row | SMILES | IC50 [1] | IC50 [2] | IC50 [3]
1 | NCCn1ccnn1 [Derivative 32] | 35 µM | 101 µM | 101 µM
2 | N=C(N)c1cn(CCCN)nn1 [Derivative 34] | 101 µM | 220 µM | 350 µM
3 | O=c1[nH]c(-c2cn(C3CCNCC3)nn2)no1 [compound 9, 3-(1-(piperidin-4-yl)-1H-1,2,3-triazol-4-yl)-1,2,4-oxadiazol-5(4H)-one] | 500 µM | 820 µM | 1100 µM
4 | O=c1[nH]nc(-c2cn(C3CCNCC3)nn2)o1 [compound 12, 5-(1-(piperidin-4-yl)-1H-1,2,3-triazol-4-yl)-1,3,4-oxadiazol-2(3H)-one] | 25 µM | 65 µM | 110 µM

Other lines, results leading:

Row | IC50 [1] | IC50 [2] | IC50 [3] | SMILES
5 | 29 µM | 82 µM | 184 µM | N=C(N)c1cn(C2CCNCC2)nn1 [Derivative 33]
6 | 290 µM | 450 µM | 670 µM | N=C(N)c1cn(C2CCC(N)CC2)nn1 (stereo not drawn) [Derivative 35]
7 | 119 µM | 278 µM | 415 µM | N=C(N)c1cn(CCN)nn1 [Derivative 36]
